Laboratory results as given in paper PMC10177727 (Clinical Drug Investigation, 2023).
Like-named read-outs stand apart in the source and are kept apart here.

Assays:
[1] = Safety and tolerability: treatment-emergent adverse events; type: in vivo, healthy Japanese adult participants
CYP3A [2] = target: CYP3A (Homo sapiens, UniProt P08684); conditions: pre-clinical in vitro findings
[3] = ensitrelvir; cited from earlier work
CYP3A [4] = tested on: CYP3A
CYP3A [5] = conditions: with itraconazole, prednisolone 20 mg administered on Day 5; cited from earlier work
CYP3A [6] = assay: clinical; conditions: human, in vivo, po, 10 mg; for half-life: t1/2,z GLS mean
CYP3A [7] = conditions: midazolam with ensitrelvir 375/125 mg / midazolam alone, Day 5/Day -2
CYP3A [8] = conditions: with ensitrelvir 750/250 mg; cited from earlier work
CYP3A [9] = assay: clinical; conditions: human, in vivo, po, 2 mg, midazolam 2 mg alone, Day -2
[10] = Ensitrelvir 375/125 mg + midazolam, N = 14
[11] = Ensitrelvir 375/125 mg + midazolam, N = 14, listed as ensitrelvir
[12] = Ensitrelvir 750/250 mg + dexamethasone, N = 14
[13] = Ensitrelvir 750/250 mg + dexamethasone, N = 14, listed as ensitrelvir
[14] = Ensitrelvir 750/250 mg + prednisolone, N = 14
[15] = 5th day after the last ensitrelvir dose / prednisolone alone, Day 9/Day -2
[16] = 10th day after the last ensitrelvir dose / prednisolone alone, Day 14/Day -2
[17] = prednisolone with ensitrelvir 750/250 mg / prednisolone alone, Day 5/Day -2
[18] = midazolam cohort (ensitrelvir 375/125 mg + midazolam 2 mg), N = 14

Sequence of CYP3A (Homo sapiens, UniProt P08684) (P08684 2-503): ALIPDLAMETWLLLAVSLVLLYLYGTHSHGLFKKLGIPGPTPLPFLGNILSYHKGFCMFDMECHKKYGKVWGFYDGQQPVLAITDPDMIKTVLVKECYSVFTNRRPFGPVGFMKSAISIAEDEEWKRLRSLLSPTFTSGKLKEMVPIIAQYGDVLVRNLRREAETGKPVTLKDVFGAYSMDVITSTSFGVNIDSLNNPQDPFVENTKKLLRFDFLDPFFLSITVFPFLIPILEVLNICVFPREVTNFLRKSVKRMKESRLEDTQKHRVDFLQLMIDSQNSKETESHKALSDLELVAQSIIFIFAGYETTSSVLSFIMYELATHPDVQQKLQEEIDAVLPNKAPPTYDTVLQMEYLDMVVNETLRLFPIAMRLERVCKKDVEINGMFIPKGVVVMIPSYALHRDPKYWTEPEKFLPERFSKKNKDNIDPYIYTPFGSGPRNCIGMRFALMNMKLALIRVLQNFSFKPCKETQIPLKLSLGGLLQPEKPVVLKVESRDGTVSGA

## Cn1cnc(Cn2c(=O)[nH]/c(=N\c3cc4cn(C)nc4cc3Cl)n(Cc3cc(F)c(F)cc3F)c2=O)n1 [Ensitrelvir, Ensitrelvir fumaric acid]
[1]; [10]
  Arthropod sting, Events: 1
  Arthropod sting, N (%): 1 (7.1)
  Blood triglycerides increased, Events: 1
  Blood triglycerides increased, N (%): 1 (7.1)
  Blood triglycerides increased, events Related to ensitrelvir: 1
  Diarrhea, Events: 1
  Diarrhea, N (%): 1 (7.1)
  Gastrointestinal disorders, Events: 1
  Gastrointestinal disorders, N (%): 1 (7.1)
  High-density lipoprotein decreased, Events: 8
  High-density lipoprotein decreased, N (%): 8 (57.1)
  High-density lipoprotein decreased, events Related to ensitrelvir: 8
  Injury, poisoning and procedural complications, Events: 1
  Injury, poisoning and procedural complications, N (%): 1 (7.1)
  Investigations, Events: 9
  Investigations, N (%): 8 (57.1)
  Investigations, events Related to ensitrelvir: 9
  Nervous system disorders, Events: 10
  Nervous system disorders, N (%): 9 (64.3)
  Nervous system disorders, events Related to ensitrelvir: 2
  Participants with any TEAE, Events: 21
  Participants with any TEAE, N (%): 11 (78.6)
  Participants with any TEAE, events Related to ensitrelvir: 11
  Somnolence, Events: 10
  Somnolence, N (%): 9 (64.3)
  Somnolence, events Related to ensitrelvir: 2
[1]; [11]
  Arthropod sting, N (%): 1
  Blood triglycerides increased, N (%): 1
  Diarrhea, N (%): 1
  High-density lipoprotein decreased, N (%): 8
  Participants with any TEAE, N (%): 11
  Somnolence, N (%): 9
[1]; [12]
  Atrioventricular block, Events: 1
  Atrioventricular block, N (%): 1 (7.1)
  Blood triglycerides increased, Events: 4
  Blood triglycerides increased, N (%): 4 (28.6)
  Blood triglycerides increased, events Related to ensitrelvir: 3
  Cardiac disorders, Events: 1
  Cardiac disorders, N (%): 1 (7.1)
  Dizziness, Events: 1
  Dizziness, N (%): 1 (7.1)
  Dizziness, events Related to ensitrelvir: 1
  Headache, Events: 1
  Headache, N (%): 1 (7.1)
  Headache, events Related to ensitrelvir: 1
  High-density lipoprotein decreased, Events: 5
  High-density lipoprotein decreased, N (%): 5 (35.7)
  High-density lipoprotein decreased, events Related to ensitrelvir: 5
  Investigations, Events: 9
  Investigations, N (%): 7 (50.0)
  Investigations, events Related to ensitrelvir: 8
  Nervous system disorders, Events: 2
  Nervous system disorders, N (%): 1 (7.1)
  Nervous system disorders, events Related to ensitrelvir: 2
  Papule, Events: 1
  Papule, N (%): 1 (7.1)
  Papule, events Related to ensitrelvir: 1
  Participants with any TEAE, Events: 13
  Participants with any TEAE, N (%): 9 (64.3)
  Participants with any TEAE, events Related to ensitrelvir: 11
  Skin and subcutaneous tissue disorders, Events: 1
  Skin and subcutaneous tissue disorders, N (%): 1 (7.1)
  Skin and subcutaneous tissue disorders, events Related to ensitrelvir: 1
[1]; [13]
  Atrioventricular block, N (%): 1
  Blood triglycerides increased, N (%): 4
  Dizziness, N (%): 1
  Headache, N (%): 1
  Papule, N (%): 1
  Participants with any TEAE, N (%): 9
[1]; [14]
  Atrioventricular block, Events: 0
  Atrioventricular block, N (%): 0
  Atrioventricular block, events Related to ensitrelvir: 0
  Blood triglycerides increased, Events: 0
  Blood triglycerides increased, N (%): 0
  Blood triglycerides increased, events Related to ensitrelvir: 0
  Cardiac disorders, Events: 0
  Cardiac disorders, N (%): 0
  Cardiac disorders, events Related to ensitrelvir: 0
  Dizziness, Events: 0
  Dizziness, N (%): 0
  Dizziness, events Related to ensitrelvir: 0
  Headache, Events: 0
  Headache, N (%): 0
  Headache, events Related to ensitrelvir: 0
  High-density lipoprotein decreased, Events: 14
  High-density lipoprotein decreased, N (%): 14 (100.0)
  High-density lipoprotein decreased, events Related to ensitrelvir: 14
  Investigations, Events: 14
  Investigations, N (%): 14 (100.0)
  Investigations, events Related to ensitrelvir: 14
  Nervous system disorders, Events: 0
  Nervous system disorders, N (%): 0
  Nervous system disorders, events Related to ensitrelvir: 0
  Papule, Events: 0
  Papule, N (%): 0
  Papule, events Related to ensitrelvir: 0
  Participants with any TEAE, Events: 14
  Participants with any TEAE, N (%): 14 (100.0)
  Participants with any TEAE, events Related to ensitrelvir: 14
  Skin and subcutaneous tissue disorders, Events: 0
  Skin and subcutaneous tissue disorders, N (%): 0
  Skin and subcutaneous tissue disorders, events Related to ensitrelvir: 0
[1]; Ensitrelvir 750/250 mg + prednisolone, N = 14, listed as ensitrelvir
  Participants with any TEAE, N (%): 14
[1]; all cohorts
  serious TEAEs: no serious TEAEs
[1]; multiple-dose ensitrelvir with CYP3A substrates
  tolerability: well tolerated
CYP3A [2]
  reversible inhibitory effect on CYP3A4: no reversible inhibitory effect
  time-dependent inhibition of CYP3A: time-dependent NADPH-mediated inhibition
[3]
  t1/2,z: 42.2 to 48.1 h

## C[C@]12C=CC(=O)C=C1CC[C@@H]1[C@@H]2[C@@H](O)C[C@@]2(C)[C@H]1CC[C@]2(O)C(=O)CO [Prednisolone]
CYP3A [4]; [15]
  AUC0–inf GLS mean ratio (90% CI): 1.1243 (1.0973–1.1521)
  AUC0–last GLS mean ratio (90% CI): 1.1142 (1.0842–1.1451)
  Cmax GLS mean ratio (90% CI): 1.0953 (0.9865–1.2160)
  MRT GLS mean ratio (90% CI): 1.0569 (1.0095–1.1065)
  t1/2,z GLS mean ratio (90% CI): 1.0660 (1.0349–1.0980)
  λz GLS mean ratio (90% CI): 0.9381 (0.9107–0.9663)
CYP3A [4]; [16]
  AUC0–inf GLS mean ratio (90% CI): 1.0396 (1.0146–1.0653)
  AUC0–last GLS mean ratio (90% CI): 1.0267 (0.9990–1.0552)
  Cmax GLS mean ratio (90% CI): 0.9927 (0.8941–1.1021)
  MRT GLS mean ratio (90% CI): 1.0419 (0.9952–1.0908)
  t1/2,z GLS mean ratio (90% CI): 1.0474 (1.0169–1.0789)
  λz GLS mean ratio (90% CI): 0.9547 (0.9269–0.9834)
CYP3A [4]; [17]
  AUC0–inf GLS mean ratio (90% CI): 1.2476 (1.2176–1.2784)
  AUC0–last GLS mean ratio (90% CI): 1.2408 (1.2073–1.2752)
  Cmax GLS mean ratio (90% CI): 1.1141 (1.0035–1.2369)
  MRT GLS mean ratio (90% CI): 1.1065 (1.0569–1.1584)
  t1/2,z GLS mean ratio (90% CI): 1.1160 (1.0835–1.1496)
  λz GLS mean ratio (90% CI): 0.8960 (0.8699–0.9230)
CYP3A [5]
  AUC of prednisolone increase: 1.24 fold
CYP3A [6]; AUC0–inf GLS mean, prednisolone 10 mg alone, Day -2
  AUC(0-inf): 1090 ng·h/mL
CYP3A [6]; AUC0–last GLS mean, prednisolone 10 mg alone, Day -2
  AUC(0-t): 1040 ng·h/mL
CYP3A [6]; Cmax GLS mean, prednisolone 10 mg alone, Day -2
  Cmax: 243 ng/mL
CYP3A [6]; MRT GLS mean, prednisolone 10 mg alone, Day -2
  MRT: 4.26 h
CYP3A [6]; prednisolone 10 mg alone, Day -2
  half-life: 2.55 h
CYP3A [6]; prednisolone 10 mg, 5th day after the last ensitrelvir dose, Day 9
  half-life: 2.71 h
CYP3A [6]; prednisolone 10 mg, 10th day after the last ensitrelvir dose, Day 14
  half-life: 2.67 h
CYP3A [6]; λz GLS mean, prednisolone 10 mg alone, Day -2
  k el: 7.56e-05 s⁻¹

## Cc1ncc2n1-c1ccc(Cl)cc1C(c1ccccc1F)=NC2 [Midazolam]
[1]; [18]
  Diarrhea, events related to midazolam: 1
  Somnolence, events related to midazolam: 8
CYP3A [7]
  AUC0–inf GLS mean ratio (90% CI): 6.7685 (6.1572–7.4404)
  AUC0–last GLS mean ratio (90% CI): 6.9011 (6.2722–7.5931)
  Cmax GLS mean ratio (90% CI): 2.8012 (2.3798–3.2971)
  MRT GLS mean ratio (90% CI): 2.6506 (2.4623–2.8532)
  t1/2,z GLS mean ratio (90% CI): 2.2750 (2.0373–2.5406)
  λz GLS mean ratio (90% CI): 0.4396 (0.3936–0.4909)
CYP3A [8]
  increase in the plasma exposure of midazolam: 8.80 fold
  increased ratio of Cmax of midazolam: 2.78 fold
CYP3A [9]; AUC0–inf GLS mean
  AUC(0-inf): 24.1 ng·h/mL
CYP3A [9]; AUC0–last GLS mean
  AUC(0-t): 23.4 ng·h/mL
CYP3A [9]; Cmax GLS mean
  Cmax: 12.6 ng/mL
CYP3A [9]; MRT GLS mean
  MRT: 3.18 h
CYP3A [9]; t1/2,z GLS mean
  half-life: 3.24 h
CYP3A [9]; λz GLS mean
  k el: 5.94e-05 s⁻¹
